Laboratory results as given in the supplement of paper PMC10949913.
Values joined by “and” are separate entries in the source; they are usually repeats but may differ in a detail not shown here. Equal values may be shown once.

Columns and labels:
Details in all cases: 48 h
CU-ACC1 [1] = assay: AC50 viability; higher = less potent
Summary of the method: (§1)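 Three adrenocortical carcinoma cell lines were seeded at 500–1,000 cells/well in 5 µL medium in 1,536-well plates. 23 nL of each MIPE 5.0 library compound was added at 11 concentrations. After 48 h (per the protocol name), CellTiter-Glo was added for 15 minutes at room temperature and luminescence was read. Signals were normalised per plate to vehicle and empty-well controls. AC50 and area under the curve came from fitted concentration-response curves, keeping only inhibitory or non-responding curve classes.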

CU-ACC2 [2] = assay: AC50 viability; higher = less potent
Summary of the method: as §1

CU-ACC1 [3] = assay: area under concentration-response curve (viability) (AUC (a.u.)); higher = less active
Summary of the method: as §1

CU-ACC2 [4] = assay: as above
Summary of the method: as §1

NCI-H295R = assay: as above
Summary of the method: as §1

Row | Structure (SMILES) | AC50 viability (CU-ACC1 [1]) | AC50 viability (CU-ACC2 [2]) | area under concentration-response curve (CU-ACC1 [3]) | area under concentration-response curve (CU-ACC2 [4]) | area under concentration-response curve (NCI-H295R)
1 | COc1cc2c(cc1OC(C)C)[C@H](c1ccc(Cl)cc1)N(c1ccc(N(C)C[C@H]3CC[C@H](N4CCN(C)C(=O)C4)CC3)cc1)C(=O)C2 | 16.6 µM | 20.9 µM | 427 | 510 | –
2 | CN1C(=O)/C(=C(NC2=CC=C(I)C=C2F)\C3=C1\N=C/N(C[C@@H](O)CO)C3=O)F | 8.33 µM | 11.8 µM | 431 | 497 | 534
3 | CC[C@@]1(O)C(=O)OCc2c1cc1n(c2=O)Cc2cc3c(CN(C)C)c(O)ccc3nc2-1.Cl | 16.6 µM | 16.6 µM | 428 | 483 | 488
4 | CN(C)C1CCN(C(=O)c2ccc(NC(=O)Nc3nc(N4CCOCC4)nc(N4CCOCC4)n3)cc2)CC1 | 3.32 µM | 1.86 µM | 393 | 458 | 464
5 | COC1=CC=C(C=C1)C/2=C/OC3=C(C(=CC(=C3)O)O)C2=O | 0.0661 µM | 0.295 µM | 267 | 164 | 208
6 | CN1\N=C(N)/C2=C[N]([C@@H]3O[C@H](CO[P](O)(O)=O)[C@@H](O)[C@H]3O)C4=C2C1=NC=N4 | 11.8 µM | 4.68 µM | 429 | 464 | 493
7 | CC(C)(O)CC[C@@H](O)[C@](C)(O)[C@H]1CC[C@@]2(O)C/3=C/C(=O)[C@@H]4C[C@@H](O)[C@@H](O)C[C@]4(C)[C@H]3CC[C@]12C | 0.132 µM | 0.372 µM | 192 | 233 | –
8 | CN1\C=N/C2=CC=C(NC3=CC(=CC=C3C)NC(=O)C4=CC(=CC=C4)C(C)(C)C#N)C=C2C1=O | 0.0934 µM | 8.33 µM | 445 | 499 | 518
9 | C[S+]([O-])c1ccc(-c2nc(-c3ccc(F)cc3)c(-c3ccncc3)[nH]2)cc1 (centres undefined) | 18.6 µM | 16.6 µM | 393 | 420 | –
10 | Cc1c[nH]c2ncnc(N3CCC(CN)(C(=O)Nc4cccc(OC(=O)N(C)C)c4)CC3)c12 | 10.5 µM | 18.6 µM | 427 and 309 | 512 | 518 and 295
11 | Cc1cc2c(C(C)C)c(O)c(O)c(C=O)c2c(O)c1-c1c(C)cc2c(C(C)C)c(O)c(O)c(C=O)c2c1O | 26.3 µM | 23.5 µM | 529 | 596 | –
12 | CC(=O)Nc1ccc(C(=O)NC(C)(C)C)cc1 | 5.25 µM | 0.295 µM | 331 | 247 | 284
13 | O=C(NOCC1CC1)c1ccc(F)c(F)c1Nc1ccc(I)cc1Cl | 13.2 µM | 16.6 µM | 485 | 527 | –
14 | COc1cccc([C@@H](C)NCCCc2ccccc2Cl)c1 | 20.9 µM | 23.5 µM | 462 | 584 | –
15 | C/C=C/C/C=C/CCC(=O)[C@H]1O[C@H]1C(N)=O | 20.9 µM | 23.5 µM | 474 | 554 | –
16 | C[C@@H]\1CC(=O)N\N=C1C2=CC=C(NN=C(C#N)C#N)C=C2 | 11.8 µM | 16.6 µM | 375 | 425 | 363
17 | CN\1C(=O)/C(=C(\N=C1NC[C@@H](N)CC2=CC=CC=C2)C3=CC=NC=C3)C4=CC5=C(C=CC=C5)C=C4 | 29.5 µM | 37.2 µM | 484 | 571 | –
18 | CC(C)Nc1cc(-c2c[nH]c(C(=O)N[C@H](CO)c3cccc(Cl)c3)c2)c(Cl)cn1 | 23.5 µM | 18.6 µM | 467 | 545 | –
19 | CCC(=C/[C@H](C)C/C=C/C(C)=C/[C@@H](C)C(=O)[C@@H](C)[C@H](O)[C@@H](C)C/C(C)=C/C(=O)O)/C=C/[C@@H]1OC(=O)C=C[C@@H]1C | 0.00105 µM | 13.2 µM | 230 | 344 | 333
20 | COc1ccc(CNc2nc(N(CCO)CCO)nc3c2ncn3C(C)C)cc1 | 14.8 µM | 7.42 µM | 438 | 502 | –
21 | COc1ncc(Nc2ncc(C(C)N3CCN([S+](C)(=O)[O-])CC3)cc2-c2nc(C)nc(N)n2)cc1F (centres undefined) | 0.00263 µM | 0.0934 µM | 226 | 258 | 179
22 | CC1=C(/C=C/C(C)=C/C=C/C(C)=C/C(=O)Nc2ccc(O)cc2)C(C)(C)CCC1 | 0.235 µM | 0.295 µM | 232 | 170 | 179
23 | O=C(N[C@@H](c1ccccc1)[C@@H]1CCCCN1)c1cccc(C(F)(F)F)c1Cl | 10.5 µM | 33.2 µM | 371 | 454 | 212
24 | Oc1cc(-c2nc(-c3ccccc3)[nH]c2-c2ccncc2)ccc1Cl | 20.9 µM | 16.6 µM | 464 | 514 | 522
25 | CCCNCC(O)COc1ccccc1C(=O)CCc1ccccc1 (centres undefined) | 23.5 µM | 23.5 µM | 417 | 451 | –
26 | CN[C@@H]1CN(C[C@H]1OC)C2=NC3=C(C=C2)C(=O)C(=C\N3C4=NC=CS4)/C(O)=O | 10.2 µM | 4.56 µM | 475 | 474 | 445
27 | Cn1c(CCCCCCC(=O)NO)nc2cc(N(CCCl)CCCl)ccc21 | 10.5 µM | 5.9 µM | 439 | 479 | 497
28 | CN1C(=O)C(=C/2N(C(=O)N(C3CC3)C(=O)C2=C1/NC4=CC=C(I)C=C4F)C5=CC=CC(=C5)NC(C)=O)\C | 0.742 µM | 0.0661 µM | 305 | 372 | 408
